Source: US10087142B2, “Azetidine derivatives useful as modulators of cortical cathecolaminergic neurotransmission” (Integrative Research Laboratories Sweden AB, priority 2015, dated 2018)

Assays:
DOPAC = assay: Neurochemistry: tissue levels of DOPAC in brain regions; type: in vivo, rat; details: 33 μmol/kg s.c., rats, 65 min before sacrifice, n = 5; for DOPAC frontal cortex ± SEM: frontal cortex tissue; for DOPAC striatum ± SEM: striatum tissue
Source text: The change in turnover of dopamine in the terminal areas of the ascending dopaminergic projections of the mammalian brain can be illustrated by measuring of changes in biochemical indices in the brain e.g. changes in concentrations of dopamine metabolites such as 3,4-dihydroxyphenyl-acetic acid (DOPAC) in the striatum and frontal cortex.
The measurement of the tissue content of DOPAC is well established in the field of research since the 1960's. In short, male Sprague-Dawley rats are administered the test compound 60 minutes prior to decapitation. The brain is rapidly taken out and dissected. The striatum is rapidly frozen and subsequently quantitatively analyzed with respect to its content of DOPAC by means of HPLC and electrochemical detection. The number of animals used for each test compound/vehicle is 5/group.
After the behavioural activity sessions, the rats were decapitated and their brains rapidly taken out and put on an ice-cold petri-dish. The brains were dissected into a right and a left part of which the right part was analyzed for neurochemicals with HPLC and the left part was analyzed for gene expression. The limbic forebrain, the striatum, the frontal cortex, the hippocampus and the remaining hemispheral parts of each rat were dissected and frozen. Each brain part was subsequently analyzed with respect to its content of monoamines and their metabolites.
The monoamine transmitter substances (NA (noradrenaline), DA (dopamine), 5-HT (serotonin)) as well as one corresponding acid, (DOPAC (3,4-dihydroxyphenylacetic acid), were quantified in brain tissue homogenates by HPLC separations and electrochemical detection.
The analytical method is based on two chromatographic separations dedicated for amines or acids. Two chromatographic systems share a common auto injector with a 10-port valve and two sample loops for simultaneous injection on the two systems. Both systems are equipped with a reverse phase column (Luna C18 (2), dp 3 μm, 50*2 mm i.d., Phenomenex) and electrochemical detection is accomplished at two potentials on glassy carbon electrodes (MF-1000, Bioanalytical Systems, Inc.). The column effluent is passed via a T-connection to the detection cell or to a waste outlet. This is accomplished by two solenoid valves, which block either the waste or detector outlet. By preventing the chromatographic front from reaching the detector, better detection conditions are achieved. The aqueous mobile phase (0.4 ml/min) for the acid system contains citric acid 14 mM, sodium citrate 10 mM, Methanol 15% (v/v) and EDTA 0.1 mM. Detection potentials relative to Ag/AgCl reference are 0.45 and 0.60V. […] Detection potentials relative to Ag/AgCl reference are 0.45 and 0.65V.

Arc mRNA = assay: m-RNA analysis: Arc mRNA tissue levels in brain regions; type: in vivo, rat; details: 33 μmol/kg s.c., rats, 65 min before sacrifice, n = 5; for Arc frontal cortex ± SEM: frontal cortex tissue; for Arc striatum ± SEM: striatum tissue
Procedure: Sesack et al. (Anatom Substr Glut-Dopamine Inter. Annals of NY AcadSci, 2003, 1003; 36-52) discloses that the dopaminergic systems of the brain interact strongly with central glutamate neurotransmission. To investigate potential effects of compounds as disclosed herein on cortical and striatal NMDA type glutamate receptor related synaptic signaling, Arc mRNA induction was assessed upon acute administration. Arc (Arc/Arg3.1-activity regulated cytoskeleton-associated protein/activity-regulated gene 3.1; (Link W et al., Proc Natl Acad Sci, USA, 1995, 92; 5734-8 and Lyford G L et al., Neuron, 1995, 14; 433-45), is an immediate early gene (IEG), induced by synaptic activity, whose expression and localization at synaptic sites is triggered specifically by NMDA receptor activation and strongly related to neural plasticity (Steward and Worley, Neuron, 2001, 30; 227-40, Kawashima et al., PNAS, 2009, 106(1); 316-21 and Bramham et al., Exp Brain Res, 2010, 200; 125-40).
[…] were dissected into […] different areas: Limbic system (containing nucleus accumbens, most parts of the olfactory tubercle, ventral pallidum), striatum, frontal cortex, hippocampus and the remaining cortex.
Total RNA was prepared by the guanidin isothiocyanate method (Chomczynski P and Sacchi N, Anal Biochem, 1987, 162(1); 156-9). RNA pellets were solved in RNAse-free water and stored at −80° C. The sample concentration was determined spectrophotometrically by a NanoDrop ND1000 (Saveen Werner). A quality indicator number and an integrity number of r-RNA were measured with an Experion (Bio-rad).
A two-step reversed transcription was performed by using a SuperScript III kit (Invitrogen). 1 μg of total RNA was reverse transcribed with 5 μl 2×RT Reaction Mix, 1 μl RT Enzyme Mix, in a total volume adjusted to 10 μl with DEPC-treated water. 1 U of E. coli RNase H was added. c-DNA was diluted 40 times and stored at −20° C.
Three sequences (one gene of interest and two reference genes) were amplified together in a triplex PCR-reaction. For real-time PCR measurements: 5 μl of c-DNA reaction was amplified in a 20 μl reaction mixture containing 10 μl PerfeCta Multiplex qPCR Supermix (Quanta, VWR), 3.5 μl RNAse-free water, 0.15 μM of each primer and 0.1 μM of each probe. Real-time PCR was measured on CFX96 (Bio-rad) using the following settings for all genes: 3 min pre-incubation at 95° C. followed by 40 cycles of denaturation at 95° C. for 15 s, annealing and elongation at 60° C. for 1 minute.
Reference genes are HPRT and cyclophilin.
The primer and probe sequences are as follows for measuring of arc:
Correct PCR products are confirmed by agarose gel electrophoresis (2%) PCR products are purified with PCR purification kit from Qiagen (Valencia, Calif., USA). All genes are sequenced at MWG, Germany. […]

| SMILES | DOPAC frontal cortex ± SEM (DOPAC) | DOPAC striatum ± SEM (DOPAC) | Arc frontal cortex ± SEM (Arc mRNA) | Arc striatum ± SEM (Arc mRNA) |
| --- | --- | --- | --- | --- |
| Fc1cc(F)cc(C(F)C2CNC2)c1.O=C(O)/C=C/C(=O)O (single isomer, unassigned; (-)) [Example 3, (−)-3-[(3,5-Difluorophenyl)(Fluoro)Methyl]Azetidine Fumarate Salt] | 161 ± 6% of control means | 83 ± 2% of control means | 137 ± 6% of control means | 90 ± 7% of control means |
| Cl.Fc1cccc(C(F)C2CNC2)c1F (single isomer, unassigned; (-)) [Example 1, (−)-3-[(2,3-Difluorophenyl)(Fluoro)Methyl]Azetidine Hydrochloric Acid Salt] | 188 ± 20% of control means | 100 ± 8% of control means | 169 ± 8% of control means | 133 ± 9% of control means |
